Test results: patent publication US4861763A, “17 α-(substituted-methyl)-17β-hydroxy/esterified hydroxy steroids and their progestational use” (Research Triangle Institute, priority 1988, dated 1989)
Read-outs that look alike come from different tables or passages of the source.

Tests used:
glucocorticoid receptor = molecular target: T1, glucocorticoid receptor (Rattus norvegicus, UniProt P06536); assay: relative binding affinity (RBA) for glucocorticoid receptor from thymus of adrenalectomized rats; conditions: for RBA for Glucocorticoid receptor: relative to dexamethasone = 100, average of 1-3 assays; for binding to the glucocorticoid receptor, times the RBA of dexamethasone: compared with dexamethasone
T1 construct: glucocorticoid receptor from thymus of adrenalectomized rats; from tissue; host or cells: thymus cytosol of adrenalectomized rats
T1 sequence (P06536 1-795): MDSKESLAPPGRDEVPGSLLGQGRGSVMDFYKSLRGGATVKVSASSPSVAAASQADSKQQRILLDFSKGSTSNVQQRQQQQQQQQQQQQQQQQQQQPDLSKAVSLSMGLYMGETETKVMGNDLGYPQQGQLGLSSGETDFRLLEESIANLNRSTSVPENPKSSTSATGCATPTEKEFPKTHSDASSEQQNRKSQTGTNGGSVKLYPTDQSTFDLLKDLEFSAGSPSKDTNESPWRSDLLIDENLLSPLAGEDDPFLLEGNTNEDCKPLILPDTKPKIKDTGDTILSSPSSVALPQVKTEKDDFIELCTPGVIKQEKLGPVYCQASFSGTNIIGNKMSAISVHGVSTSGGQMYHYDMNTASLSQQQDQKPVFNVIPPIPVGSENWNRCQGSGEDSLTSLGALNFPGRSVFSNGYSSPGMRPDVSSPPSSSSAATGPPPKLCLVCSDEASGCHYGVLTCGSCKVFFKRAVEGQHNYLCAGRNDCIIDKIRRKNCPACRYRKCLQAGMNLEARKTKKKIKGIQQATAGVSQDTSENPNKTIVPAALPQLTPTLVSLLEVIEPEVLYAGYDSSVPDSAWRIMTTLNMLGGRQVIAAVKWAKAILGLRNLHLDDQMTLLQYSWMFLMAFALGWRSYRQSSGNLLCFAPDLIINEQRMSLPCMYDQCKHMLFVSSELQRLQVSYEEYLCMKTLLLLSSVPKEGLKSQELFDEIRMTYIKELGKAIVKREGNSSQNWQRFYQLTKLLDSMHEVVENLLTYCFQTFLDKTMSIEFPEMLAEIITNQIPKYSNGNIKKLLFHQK
Experimental: (§1) concentrations) with cytosol containing the receptor and a tritiumlabeled
(§2) required to displace 50% of bound radioligand is determined graphically

progesterone receptor = molecular target: T2, progesterone receptor (Oryctolagus cuniculus, UniProt P06186); assay: relative binding affinity (RBA) for progesterone receptor in cytosol of estrogen-primed immature rabbit uterus; conditions: relative to progesterone = 100; average of 1-3 assays
T2 construct: cytosol obtained from estrogen-primedimmature rabbit uterus; from tissue; host or cells: uterus cytosol of estrogen-primed immature rabbits
T2 sequence (P06186 1-930): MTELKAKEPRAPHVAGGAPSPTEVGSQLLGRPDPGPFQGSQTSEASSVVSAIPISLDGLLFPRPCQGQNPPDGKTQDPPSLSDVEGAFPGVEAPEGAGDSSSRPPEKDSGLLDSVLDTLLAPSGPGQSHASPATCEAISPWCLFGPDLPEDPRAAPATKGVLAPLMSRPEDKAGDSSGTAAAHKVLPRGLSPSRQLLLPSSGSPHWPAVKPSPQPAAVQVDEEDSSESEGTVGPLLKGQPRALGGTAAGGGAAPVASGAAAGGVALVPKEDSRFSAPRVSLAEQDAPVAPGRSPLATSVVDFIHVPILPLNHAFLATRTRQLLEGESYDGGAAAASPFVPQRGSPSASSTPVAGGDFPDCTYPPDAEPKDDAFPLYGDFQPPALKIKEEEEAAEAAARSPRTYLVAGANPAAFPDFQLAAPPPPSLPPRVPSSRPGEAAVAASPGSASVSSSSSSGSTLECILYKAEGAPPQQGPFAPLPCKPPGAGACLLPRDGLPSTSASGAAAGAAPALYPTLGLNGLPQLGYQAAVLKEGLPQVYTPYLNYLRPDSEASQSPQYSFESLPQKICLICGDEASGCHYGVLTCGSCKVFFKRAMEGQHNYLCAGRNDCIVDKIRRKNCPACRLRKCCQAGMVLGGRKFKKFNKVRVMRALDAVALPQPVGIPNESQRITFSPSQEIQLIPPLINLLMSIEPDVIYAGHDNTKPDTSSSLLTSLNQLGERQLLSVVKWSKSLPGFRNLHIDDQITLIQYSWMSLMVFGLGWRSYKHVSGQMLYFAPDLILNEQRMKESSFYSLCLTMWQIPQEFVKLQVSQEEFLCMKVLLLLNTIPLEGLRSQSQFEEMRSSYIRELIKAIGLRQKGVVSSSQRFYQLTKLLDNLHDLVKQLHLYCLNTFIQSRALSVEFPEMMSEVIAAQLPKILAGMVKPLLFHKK
Experimental: as §1, §2

estrogen receptor = molecular target: T3, estrogen receptor (Rattus norvegicus, UniProt P06211); assay: relative binding affinity (RBA) for estrogen receptor from immature rat uterus
T3 construct: estrogen receptor from immature rat uterus; from tissue; host or cells: uterus cytosol of immature rats
T3 sequence (P06211 1-600): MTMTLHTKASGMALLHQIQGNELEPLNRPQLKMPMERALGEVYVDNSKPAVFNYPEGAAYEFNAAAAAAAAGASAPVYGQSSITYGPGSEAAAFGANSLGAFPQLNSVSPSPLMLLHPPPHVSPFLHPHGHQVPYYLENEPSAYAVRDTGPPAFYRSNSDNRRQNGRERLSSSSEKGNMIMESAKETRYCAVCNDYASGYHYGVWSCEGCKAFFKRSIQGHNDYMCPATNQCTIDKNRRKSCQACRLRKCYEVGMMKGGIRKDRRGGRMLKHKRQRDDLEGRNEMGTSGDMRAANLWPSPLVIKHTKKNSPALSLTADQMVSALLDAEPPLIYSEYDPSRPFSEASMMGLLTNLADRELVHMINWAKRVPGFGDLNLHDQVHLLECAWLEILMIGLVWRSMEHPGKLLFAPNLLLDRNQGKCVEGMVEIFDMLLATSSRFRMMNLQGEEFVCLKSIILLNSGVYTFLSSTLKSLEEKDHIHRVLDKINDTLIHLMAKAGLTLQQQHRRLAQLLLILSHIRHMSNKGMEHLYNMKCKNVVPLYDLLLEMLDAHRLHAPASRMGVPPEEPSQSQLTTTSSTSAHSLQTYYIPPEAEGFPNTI
Experimental: as §1, §2

[1] = vs levonorgestrel; cited from earlier work
[2] = in vivo; cited from earlier work
[3] = tested on: endometrial response due to subcutaneous administration of progesterone; assay: in vivo antiprogestational activity, intrauterine (McGinty test); design: species or system rabbit
Source text: (§3) The antiprogestational activity of compound XVa was studied after both intrauterine and oral administration. […] The methodology used for the intrauterine test has been described by D. A. McGinty et al [Endocrinology, 24, 829 (1939)]. For oral administration of test compounds the method used was analogous to that of Clauberg [Clauberg, Zentr. Gynakol, 54, 2757 (1930)] as modified by McPhail [J. Physiol. (London) 83, 145 (1935)].
(§4) ^a Immature female rabbits are primed with estrogen and dosed with
(§5) stained and scored for endometrial proliferation according to McPhail.

[4] = tested on: endometrial response due to subcutaneous administration of progesterone; assay: in vivo antiprogestational activity, oral (Clauberg test modified by McPhail); design: species or system rabbit
Source text: as §3, §4, §5

[5] = relative to estradiol = 100, average of 1-3 assays

Compound: 11β-(4-Dimethylaminophenyl)-17β-hydroxy-17α-azidomethyl-4,9-estradien-3-one [XVb]
- RBA for Glucocorticoid receptor (glucocorticoid receptor): 143
- RBA for Progestin receptor (progesterone receptor): 71
- RBA for Estrogen receptor (estrogen receptor; [5]): 0

Compound: 11β-(4-Dimethylaminophenyl)-17β-hydroxy-17α-benzyl-4,9-estradien-3-one [XVd]
- binding to the glucocorticoid receptor, times the RBA of dexamethasone (glucocorticoid receptor): ca. 3 times
- RBA for Glucocorticoid receptor (glucocorticoid receptor): 274
- RBA for Progestin receptor (progesterone receptor): 64
- RBA for Estrogen receptor (estrogen receptor; [5]): 0

Compound: 11β-(4-Dimethylaminophenyl)-17β-hydroxy-17α-methoxymethyl-4,9-estradien-3-one [XVc]
- binding to the glucocorticoid receptor, times the RBA of dexamethasone (glucocorticoid receptor): ca. 3 times
- RBA for Glucocorticoid receptor (glucocorticoid receptor): 413
- RBA for Progestin receptor (progesterone receptor): 54
- RBA for Estrogen receptor (estrogen receptor; [5]): 0

Compound: 11β-(4-Dimethylaminophenyl)-17β-hydroxy-17α-prop-2-yn-1-yl- 4,9-estradien-3-one [XVe]
- RBA for Glucocorticoid receptor (glucocorticoid receptor): 100
- RBA for Progestin receptor (progesterone receptor): 23
- RBA for Estrogen receptor (estrogen receptor; [5]): 0

Compound: C[C@@H]1C[C@H]2[C@@H]3CCC4=CC(=O)C=C[C@]4(C)[C@@]3(F)[C@@H](O)C[C@]2(C)[C@@]1(O)C(=O)CO [Dexamethasone, reference compound]
- RBA for Progestin receptor (progesterone receptor): 0.1

Compound: CC(=O)[C@H]1CC[C@H]2[C@@H]3CCC4=CC(=O)CC[C@]4(C)[C@H]3CC[C@]12C [Progesterone, reference compound]
- RBA for Estrogen receptor (estrogen receptor; [5]): 0

Compound: C[C@]12CCC3=C4CCC(=O)C=C4CC[C@H]3[C@@H]1CC[C@@]2(O)CC#N [STS 557]
- oral potency as a gestagen relative to levonorgestrel [1]: ten times
- progestational activity [2]: strong progestational activity

Compound: CN(C)c1ccc([C@H]2C[C@@]3(C)[C@@H](CC[C@@]3(O)CC#N)[C@@H]3CCC4=CC(=O)CCC4=C32)cc1 [XVa, 17α-Cyanomethyl-11β-(4-dimethylaminophenyl)-17β-hydroxy-4,9-estradien-3-one]
- RBA for Glucocorticoid receptor (glucocorticoid receptor): 74
- % Inhibition of Progestational Response ([3]; total dose per rabbit 1.0 μg): 7.3 ± 4.5%
- % Inhibition of Progestational Response ([3]; total dose per rabbit 5.0 μg): 26.7 ± 4.5%
- % Inhibition of Progestational Response ([3]; total dose per rabbit 10.0 μg): 80.5 ± 9.8%
- % Inhibition of Progestational Response ([3]; total dose per rabbit 40.0 μg): 96.3 ± 3.7%
- RBA for Progestin receptor (progesterone receptor): 33
- RBA for Estrogen receptor (estrogen receptor): 0
- % Inhibition of Progestational Response ([4]; total dose per rabbit 5 mg): 7.8 ± 6.0%
- % Inhibition of Progestational Response ([4]; total dose per rabbit 10 mg): 56.2 ± 7.1%
- % Inhibition of Progestational Response ([4]; total dose per rabbit 20 mg): 79.1 ± 7.4%
